Experimental data taken from patent EP4799637A1, “NASAL ADMINISTRATION COMPOSITION CONTAINING GLP-1 RECEPTOR AGONIST, AND PREPARATION METHOD THEREFOR AND USE THEREOF” (Zhongshan Wanhan Pharmaceutical Co., Ltd., priority 2023, dated 2025).

Columns and labels:
[1] = parallel artificial membrane permeability assay (PAMPA) of semaglutide formulations with permeation promoters; assay type: in vitro ADME; conditions: Skin PAMPA, permeation promoters at the same concentration of 0.25% (w/v%)
Method: 1.1. Test objective: to investigate the differences in in-vitro permeability of semaglutide having a concentration of 10 mM in pH7.4 […] buffer by using the PAMPA method after the addition of different types and proportions of permeation promoters. An appropriate amount of 10 mM semaglutide mother liquor was weighed and placed in a liquid phase injection vial, and different permeation promoters were weighed and added correspondingly according to types and proportions listed in Table 1; a magnetic stirrer was added; the magnetic stirrer was turned on to adjust a rotation speed to 650 rpm; and the temperature of the magnetic stirrer was kept at 37°C, followed by stirring for later use. Table 1 • Donor wells solutions were solutions of Formulations 1-20; • An acceptor wells solution was pH 7.4 Prisma HT buffer. • 1) PAMPA membrane hydration: a Hydration Solution (Pion) was prepared (used at room temperature); donor wells of a PAMPA plate were carefully removed; 200 μl of Hydration Solution was added to each well, and whether each empty surface forms a curved surface due to surface tension was observed; and acceptor wells of the PAMPA plate were covered carefully, while air bubbles were avoided on contact surfaces. The Hydration Solution was kept moist and hydrated overnight, and the hydrated membrane will appear translucent or have white spots. […]

[2] = Compatibility/stability study: HPLC main peak purity and impurities after storage in the dark at 40°C and 50°C; assay type: physicochemical; conditions: result in words
Method: The changes in semaglutide content and impurities in a semaglutide solution, semaglutide+different permeation promoter solutions, and semaglutide+different bacteriostatic agent solutions were determined under HPLC conditions in Example 1 after being stored in the dark for 10 days (10 D) at 40°C and 50°C, and the results were shown in Table 7.
The definitions of the hydrophilic impurities 1 and 2 and the hydrophobic impurity in Table 7 were shown in HPLC chromatograms of Formulations C1 to C4 shown in FIGS. 1-4 determined at 50°C on Day 10.
As a control, main peak intensities of compositions J and K in CN116942612A at 50°C on Day 5 were determined using the same method, both of which were below 95%.

Molecule	permeation promoting effect [1]	protective effect on semaglutide (inhibited degradation) [2]
CCCCCCCCCCCCO[C@@H]1O[C@H](CO)[C@@H](O[C@H]2O[C@H](CO)[C@@H](O)[C@H](O)[C@H]2O)[C@H](O)[C@H]1O [dodecyl-β-D-maltoside]	better permeation promoting effects	
CCCCCCCCCCCC(=O)OCCOCCOCCOCCOCCOCCOCCOCCOCCOCCOCCOCCOCCOCCOCCOCCOCCOCCOCCOCCOCC(OCCOCCOCCOCCOCCOCCOCCOCCOCCOCCOCCOCCOCCOCCOCCOCCOCCOCCOCCOCCO)C1OCC(OCCOCCOCCOCCOCCOCCOCCOCCOCCOCCOCCOCCOCCOCCOCCOCCOCCOCCOCCOCCO)C1OCCOCCOCCOCCOCCOCCOCCOCCOCCOCCOCCOCCOCCOCCOCCOCCOCCOCCOCCOCCO (stereo not shown) [polysorbate-20]	better permeation promoting effects	
benzalkonium chloride		protective effect on semaglutide
polyoxyethylene (8) dodecyl ether	better permeation promoting effects	
